The text below walks through data of US20250230193A1, “CYCLIC COMPOUND HAVING SELECTIVE KRAS INHIBITORY EFFECT ON HRAS AND NRAS” (CHUGAI SEIYAKU KABUSHIKI KAISHA, priority 2022, published 2025).

Structures are written as SMILES.

Test [1] addresses GDP-bound HRAS wild-type protein (Homo sapiens, UniProt P01112). The test can be described thus: Binding to HRAS by surface plasmon resonance (SPR), Single Cycle Kinetics. Background: In SPR one partner is held on a chip, and binding of the other changes the refractive index at the surface.
For test [2], the target named is GDP-bound NRAS wild-type protein (Homo sapiens, UniProt P01111). The test is described as follows: Binding to NRAS by surface plasmon resonance (SPR), Single Cycle Kinetics.
Sequence of GDP-bound NRAS wild-type protein (P01111 whole entry): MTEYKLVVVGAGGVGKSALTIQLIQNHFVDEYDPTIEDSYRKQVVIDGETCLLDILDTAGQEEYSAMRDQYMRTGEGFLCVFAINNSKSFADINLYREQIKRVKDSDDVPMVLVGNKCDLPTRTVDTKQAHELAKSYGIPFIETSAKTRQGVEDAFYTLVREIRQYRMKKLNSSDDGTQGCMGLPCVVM
[3] abbreviates: SPR, GDP-bound wild-type proteins.

Sequence of GDP-bound HRAS wild-type protein (P01112 whole entry): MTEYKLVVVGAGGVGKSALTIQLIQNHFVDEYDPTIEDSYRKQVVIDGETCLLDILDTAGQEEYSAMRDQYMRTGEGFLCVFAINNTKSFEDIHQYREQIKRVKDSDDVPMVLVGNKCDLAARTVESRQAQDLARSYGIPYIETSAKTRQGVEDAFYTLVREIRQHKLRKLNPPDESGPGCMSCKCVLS

As for `CCC[C@H]1C(=O)N[C@@H]([C@@H](C)CC)C(=O)N(C)CC(=O)N(C)[C@H]2C/C=C\CCN(C2=O)[C@@H](Cc2ccc(C(F)(F)F)cc2)C(=O)N(C)CC(=O)N[C@@H](CCc2cc(F)c(C(F)(F)F)c(F)c2)C(=O)N2C[C@H](OCC)C[C@H]2C(=O)N(C)C2(CCC2)C(=O)N(C)[C@@H](C2CCCC2)C(=O)N(C)[C@H](C(=O)N2CCCCC2)CC(=O)N1C` [PP3118, (2S,8S,12R,14S,20S,23S,27S,30S,36S,38Z)-20-cyclopentyl-8-[2-[3,5-difluoro-4-(trifluoromethyl)phenyl]ethyl]-12-ethoxy-4,16,19,22,26,32,35-heptamethyl-30-[(1S)-1-methylpropyl]-23-(piperidine-1-carbonyl)-27-propyl-2-[[4-(trifluoromethyl)phenyl]methyl]spiro[1,4,7,10,16,19,22,26,29,32,35-undecazatricyclo[34.5.1.0^10,14]dotetracont-38-ene-17,1′-cyclobutane]-3,6,9,15,18,21,25,28,31,34,42-undecone], the “HRAS/KRAS (ratio of KD value with respect to GDP-bound HRAS wild-type protein to KD value with respect to KRAS)” value in test [1] (setting [3]) is “B (a compound having 3 or more and less than 10 is denoted as B)”. The “NRAS/KRAS (ratio of KD value with respect to GDP-bound NRAS wild-type protein to KD value with respect to KRAS)” value in test [2] (setting [3]) was “A (a compound having 10 or more and less than 20 is denoted as A)”.

With `CCOC[C@H]1C(=O)N[C@@H]([C@@H](C)CC)C(=O)N(C)CC(=O)N(C)[C@H]2C/C=C\CCN(C2=O)[C@@H](CC2CCC(F)(F)CC2)C(=O)N(C)CC(=O)N[C@@H](CCc2ccc(C(F)(F)F)c(OC)c2)C(=O)N2C[C@H](OCC)C[C@H]2C(=O)NC2(CC(C)(C)C2)C(=O)N(C)[C@@H](C(CC)CC)C(=O)N(C)[C@H](C(=O)N(C)C)CC(=O)N1C` [PP2446], the “HRAS/KRAS (ratio of KD value with respect to HRAS to KD value with respect to KRAS)” value in test [1] (SPR, GDP-bound HRAS wild-type vs GDP-bound KRAS wild-type) was “A (a compound having 10 or more and less than 20 is denoted as A)”. For the same molecule, the “NRAS/KRAS (ratio of KD value with respect to NRAS to KD value with respect to KRAS)” value in test [2] (SPR, GDP-bound NRAS wild-type vs GDP-bound KRAS wild-type) is “A (a compound having 10 or more and less than 20 is denoted as A)”.

As for `CCO[C@@H]1C[C@H]2C(=O)NC3(CC(C)(C)C3)C(=O)N(C)[C@@H](C3CCCCC3)C(=O)N(C)[C@H](C(=O)N(C)C)CC(=O)N(C)[C@@H](COC)C(=O)N[C@@H]([C@@H](C)CC)C(=O)N(C)CC(=O)N(C)[C@H]3C/C=C\CCN(C3=O)[C@@H](Cc3ccc(C(F)(F)F)cc3)C(=O)N(C)CC(=O)N[C@@H](CCc3ccc(Cl)c(Cl)c3)C(=O)N2C1` [PP2661], the “HRAS/KRAS (ratio of KD value with respect to GDP-bound HRAS wild-type protein to KD value with respect to KRAS)” value in test [1] (class symbols) is “A (a compound having 10 or more and less than 20 is denoted as A)”. Moreover, the “NRAS/KRAS (ratio of KD value with respect to GDP-bound NRAS wild-type protein to KD value with respect to KRAS)” value in test [2] (class symbols) is “AA (a compound having 20 or more is denoted as AA)”.

In the case of `CCO[C@@H]1C[C@H]2C(=O)N(C)C3(CCC3)C(=O)N(C)[C@@H](C3CCCC3)C(=O)N(C)[C@H](C(=O)N(C)C)CC(=O)N(C)[C@@H](CC3CC3)C(=O)N[C@@H]([C@@H](C)CC)C(=O)N(C)CC(=O)N(C)[C@H]3C/C=C\CCN(C3=O)[C@@H](Cc3ccc(C)cc3)C(=O)N(C)CC(=O)N[C@@H](CCc3cc(F)c(C(F)(F)F)c(F)c3)C(=O)N2C1` [PP1795], the “HRAS/KRAS (ratio of KD value for HRAS to KD value for KRAS)” value in test [1] (KD ratio, GDP-bound HRAS wild-type vs GDP-bound KRAS wild-type, SPR) is “B (a compound having 3 or more and less than 10 is denoted as B)”. In test [2] (KD ratio, GDP-bound NRAS wild-type vs GDP-bound KRAS wild-type, SPR), the “NRAS/KRAS (ratio of KD value for NRAS to KD value for KRAS)” value was “A (a compound having 10 or more and less than 20 is denoted as A)”.

For `CCO[C@@H]1C[C@H]2C(=O)NC3(CCC3)C(=O)N(C)[C@@H](C3CCCC3)C(=O)N(C)[C@H](C(=O)N3CCCC3)CC(=O)N(C)[C@H]3CCCCC/C=C/c4ccc(cc4)C[C@@H](C(=O)N(C)CC(=O)N[C@@H](CCc4ccc(Cl)c(Cl)c4)C(=O)N2C1)N1CC/C=C\C[C@@H](C1=O)N(C)C(=O)CN(C)C(=O)[C@H]([C@@H](C)CC)NC3=O` [PP3049], the “HRAS/KRAS (ratio of KD value with respect to GDP-bound HRAS wild-type protein to KD value with respect to KRAS)” value in test [1] (setting [3]) is “A (a compound having 10 or more and less than 20 is denoted as A)”. The “NRAS/KRAS (ratio of KD value with respect to GDP-bound NRAS wild-type protein to KD value with respect to KRAS)” value in test [2] (setting [3]) is given as “AA (a compound having 20 or more is denoted as AA)”.

In the case of `CC[C@H](C)[C@@H]1NC(=O)[C@@H](CC(C)C)N(C)C(=O)C[C@@H](C(=O)N2CCOCC2)N(C)C(=O)[C@H](C2CCCC2)N(C)C(=O)C2(CCCC2)NC(=O)[C@@H]2CCCN2C(=O)[C@H](CCc2cc(F)c(C(F)(F)F)c(F)c2)NC(=O)CN(C)C(=O)[C@H](Cc2ccc(C(F)(F)F)cc2)N2CCCC[C@@H](C2=O)N(C)C(=O)CN(C)C1=O` [PP0591], the “HRAS/KRAS (ratio of KD value with respect to GDP-bound HRAS wild-type protein to KD value with respect to KRAS)” value in test [1] (SPR) was “B (a compound having 3 or more and less than 10 is denoted as B)”. The “NRAS/KRAS (ratio of KD value with respect to GDP-bound NRAS wild-type protein to KD value with respect to KRAS)” value in test [2] (SPR) was “B (a compound having 3 or more and less than 10 is denoted as B)”.
